Experimental findings from PubChem BioAssay (NCI) are described below.

Holding throughout (test): NCI tumour cell line growth inhibition, 48 h
Test [1] concerns OVCAR-5 ovarian.
Test [2] relates to SN12C renal.
The subject of test [3] is KM12 colon.
The test system of test [4] is ACHN renal.
The test system of test [5] is K-562 leukemia.
The test system of test [6] is UACC-257 melanoma.
Test [7] has as its system SK-MEL-28 melanoma.
Test [8] concerns SF-295 CNS.
The test system of test [9] is 786-0 renal.
For test [10], the system named is HT29 colon.
Test [11] relates to SF-268 CNS.
Test [12] concerns SF-539 CNS.
Test [13] relates to SK-MEL-2 melanoma.
Test [14] concerns HOP-92 NSCLC.
The subject of test [15] is UACC-62 melanoma.
The subject of test [16] is TK-10 renal.
For test [17], the system named is HS 578T breast.
Test [18] concerns PC-3 prostate.
The test system of test [19] is BT-549 breast.
In test [20] the test system is SK-OV-3 ovarian.

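Protocol summary: plate cells (96-well), add compound at 5 concentrations, incubate 48 h, interpolate endpoints linearly. The concentration for full growth arrest is given as TGI.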

On to `CC1(C)CN=C(Nc2ccc(F)c(F)c2)S1`, for which the TGI in test [1], in test [2], in [3], in test [4], in test [5] and in test [6] was over 100 µM throughout. The TGI in [7], in test [8], in test [9], in [10], in test [11] and in [12] was over 100 µM in each case. The TGI in [13] is over 100 µM; in test [14], 90.4 µM; in [15] it was over 100 µM; in [16] it was over 100 µM; in test [17], over 100 µM; in test [18], over 100 µM. The TGI in test [19] and in test [20] was over 100 µM each time.

As to `CN(C)Cc1cc(N=Nc2ccc(Cl)cc2)ccc1O`, the TGI in [1] is 26.3 µM; in test [2], 33.1 µM; in test [3] it was 34.5 µM; in test [4], 29.3 µM; in test [5], 35.2 µM; in [6] it was 32.7 µM. Further, the TGI in test [7] came to 29.6 µM; in test [8], 30.9 µM; in test [9] it was 25.8 µM; in [10], 26.4 µM; in test [11], 34.4 µM; in test [12], 34.8 µM. Besides, the TGI in [13] was determined as 38.1 µM; in test [14], 34.6 µM; in [15], 30.1 µM; in test [16] it was 28.4 µM; in [17], 31.3 µM; in test [18], 30.3 µM. For the same compound, the TGI in test [19] amounted to 26.8 µM; in [20], 33.8 µM.

With `O=C1C(Cl)=C(N2CCN(c3ccccn3)CC2)C(=O)c2ncccc21`, the TGI in [1] was 21.8 µM; in [2] it was 7 µM; in [3], 12.2 µM; in test [4], 5.52 µM; in test [5], 5.78 µM; in [6], 3.24 µM. Also, the TGI came out at 4.38 µM in [7]; 18.8 µM in test [8]; 3.12 µM in test [9]; 9.93 µM in test [10]; 8.17 µM in [11]; 3.94 µM in test [12]. Further, the TGI in [13] was determined as 4.02 µM; in test [14] it was 3.29 µM; in [15], 5.52 µM; in test [16], 9.75 µM; in [17], 5.95 µM; in test [18], 7.52 µM. Also, the figures for the TGI in [19] and in test [20] were 4.63 µM and 20.6 µM, respectively.

As for `CC(Oc1ccccc1Cl)C(=O)NN1C(=O)CSC1c1ccc(Cl)cc1` (stereo not given), the TGI was 48 µM in test [1]; 28 µM in [2]; 36.1 µM in [3]; 63 µM in [4]; 30.6 µM in test [5]; 45.1 µM in [6]. Further, the TGI in test [7] amounted to 49.2 µM; in test [8], 37.8 µM; in test [9] it was 28.6 µM; in test [10], 39.5 µM; in test [11] it was 47.6 µM; in [12] it was 65.3 µM. In addition, the TGI in test [13] was 44.9 µM; in test [14], 40.7 µM; in test [15] it was 34 µM; in [16], 55.9 µM; in test [17], 46.3 µM; in [18] it was 38.2 µM. The TGI was 45.1 µM in test [19] and 39.7 µM in test [20].

In the case of `C[C@]12CC/C(=N\OCCN3CCCCC3)C=C1CCC1C2CC[C@@]2(C)C1CC[C@]2(C)O` (stereo not given in full), the TGI is 94.4 µM in test [1]; 33.5 µM in test [2]; 26.6 µM in test [3]; 39.6 µM in test [4]; 17.9 µM in [5]; 18.9 µM in test [6]. Moreover, the TGI in test [7] stood at 30.4 µM; in [8], 14.3 µM; in test [9], 17.3 µM; in test [10] it was 10.2 µM; in [11], 31 µM; in test [12], 22.5 µM. Also, the TGI in test [13] is 28.8 µM; in test [14], 26 µM; in test [15], 24.8 µM; in test [16], 34 µM; in test [17], 32.1 µM; in [18], 49.5 µM. For the same compound, the TGI in [19] came out at 33.5 µM; in test [20], 35 µM.

Turning to `COCCOCCOCCOc1ccc(C(C#N)N(CCc2ccccc2)C(=O)c2cc(C(=O)N(CCc3ccccc3)C(C#N)c3ccc(OCCOCCOCCOC)cc3)cc(C(=O)N(CCc3ccccc3)C(C#N)c3ccc(OCCOCCOCCOC)cc3)c2)cc1` (stereo not given), the TGI in [1], in test [2], in [3], in [4], in [5] and in test [6] was over 100 µM each time. Moreover, the TGI in [7], in test [8], in test [9], in test [10], in [11] and in test [12] was over 100 µM in each case. The TGI in test [13], in test [14], in [15], in test [16], in test [17] and in [18] was over 100 µM each time. Also, the TGI in test [19] and in test [20] was over 100 µM throughout.

Consider `O=C(CN(c1ccc(S(=O)(=O)O)cc1)c1ccc(S(=O)(=O)O)cc1)Nn1cnc2ccc(S(=O)(=O)N(c3ccc(S(=O)(=O)O)cc3)c3ccc(S(=O)(=O)O)cc3)cc2c1=O`, for which the TGI in test [1], in test [2], in test [3], in [4], in test [5] and in test [6] was over 100 µM each time. Besides, the TGI in [7], in test [8], in test [9], in [10], in test [11] and in test [12] was over 100 µM throughout. The TGI in test [13], in test [14], in test [15], in [16], in test [17] and in [18] was over 100 µM throughout. Moreover, the TGI in test [19] and in test [20] was over 100 µM throughout.

In the case of `CC(=O)Nc1ccc2cc3[nH]c4cc(NC(C)=O)ccc4c3nc2c1`, the TGI in test [1], in [2], in test [3], in test [4], in [5] and in [6] was over 100 µM in each case. The TGI in test [7], in test [8], in test [9], in test [10], in [11] and in [12] was over 100 µM throughout. In addition, the TGI in test [13], in [14], in test [15], in test [16], in test [17] and in test [18] was over 100 µM each time. Also, the TGI in test [19] and in test [20] was over 100 µM throughout.

For the compound `CN(C)c1ccc(C2ON=C(c3ccccc3)N2C23CC4CC(CC(C4)C2)C3)cc1` (stereo not given), the TGI in test [1], in test [2], in test [3], in [4], in [5] and in test [6] was over 10 µM each time. The TGI in test [7], in test [8], in [9], in [10], in [11] and in test [12] was over 10 µM each time. Further, the TGI in test [13], in [14], in [15], in [16], in test [17] and in test [18] was over 10 µM throughout. The TGI in test [19] and in [20] was over 10 µM in each case.

As to `NC(N)=NS(=O)(=O)c1ccc(NC(=O)c2ccc3[nH]c4ccccc4c(=O)c3c2)cc1`, the TGI in [1], in [2], in [3], in test [4], in [5] and in [6] was over 100 µM throughout. Moreover, the TGI in test [7], in [8], in test [9], in [10], in test [11] and in [12] was over 100 µM each time. For the same compound, the TGI in test [13], in test [14], in [15], in test [16], in test [17] and in [18] was over 100 µM in each case. For the same compound, the TGI in test [19] and in [20] was over 100 µM in each case.

On to `C=C1CC(CN2CCC(=O)NC2=O)(c2ccccc2)OC1=O` (stereo not given), for which the TGI stood at 29 µM in test [1]; 33.4 µM in test [2]; 46.8 µM in test [3]; 23.8 µM in test [4]; 10.9 µM in test [5]; 30.8 µM in [6]. Further, the TGI in test [7] came to 27.3 µM; in test [8], 43 µM; in test [9] it was 15.6 µM; in [10], 25.3 µM; in test [11], 50.4 µM; in test [12] it was 28.4 µM. For the same compound, the TGI stood at 27.9 µM in test [13]; 3.07 µM in [14]; 21.3 µM in test [15]; 19.1 µM in test [16]; 34.6 µM in test [17]; 30.4 µM in test [18]. Moreover, the TGI in test [19] came out at 19.9 µM; in test [20], 30.4 µM.

Consider `CC(NC(NC(C)C12CC3CC(CC(C3)C1)C2)=C(C(Cl)=C(Cl)Cl)[N+](=O)[O-])C12CC3CC(CC(C3)C1)C2` (stereo not given), for which the TGI in [1] is over 100 µM; in test [2], 23.2 µM; in [3] it was over 100 µM; in [4], over 100 µM; in [5] it was over 40 µM; in test [6], over 54.6 µM. In addition, the TGI is over 75.5 µM in [7]; over 100 µM in test [8]; over 100 µM in test [9]; 18.1 µM in test [10]; over 59.5 µM in [11]; 69 µM in test [12]. Further, the TGI is over 67.6 µM in [13]; 17.3 µM in test [14]; over 100 µM in test [15]; over 100 µM in [16]; 53.9 µM in test [17]; over 65.2 µM in test [18]. For the same compound, the TGI was over 91.6 µM in [19] and over 100 µM in [20].

Consider `O=C(Nn1cnn2c(=O)c3ccccc3nc2c1=O)c1ccccc1`, for which the TGI in test [1], in [2], in test [3], in [4], in test [5] and in test [6] was over 100 µM in each case. For the same compound, the TGI in [7], in test [8], in test [9], in test [10], in test [11] and in test [12] was over 100 µM throughout. Besides, the TGI in test [13], in test [14], in test [15], in test [16], in test [17] and in [18] was over 100 µM in each case. The TGI in [19] and in test [20] was over 100 µM in each case.
